Common to all, as to assay type: cell-based
Test [1] has as its system Escherichia coli (10536 strain). As to the kind of experiment: 15 seconds contact-time bacterial kill assay, microtitre plate, plate counts (Examples 1 and 3). As to conditions: for MBC of antimicrobial alcohol: alcohol alone. How it is done: The efficacies of antimicrobial agents can be usefully compared by determining the Minimum Biocidal Concentration (MBC). The MBC is defined as the lowest absolute concentration of the particular active that provides complete kill (zero bacterial growth).
Antimicrobial efficacy is tested against a representative pathogenic bacterial organism, Gram negative Escherichia coli. Concentrations of actives are expressed in terms of the percentage weight/volume (% w/v) throughout Example 1.
An overnight culture of Escherichia coli (10536 strain) was prepared in 50 ml total volume of TSB broth, grown for ca. 18 hrs at 37° C. and shaken at 150 rpm. 1 ml of this overnight E. coli culture was transferred to 50 ml of fresh TSB broth and incubated at 37° C. at 150 rpm for ca. 4 hours. This culture was separated into equal volumes and centrifuged at 4000 rpm for 15 minutes, washed with sterile saline (0.85% NaCl), centrifuged once more and re-suspended in saline to give a final concentration of 0.8 OD620 equivalent to about 10^8 cells per milliliter for this particular organism. Here, OD620 indicates the absorbance of a sample in a cuvette of 1.0 cm path length at a wavelength of 620 nm. This bacterial stock was used for assaying against antimicrobial actives (in triplicate).
The following assay describes the testing of 8 materials using 6 dilutions across half of a 96-well micro titre plate (MTP). Using this approach it is possible to assay 16 actives (without replicates) with one full dilution plate, replicating this set up in two halves of the plate columns, 1-6 and 7-12.
1M solutions of the test actives were prepared in dimethylsulphoxide (DMSO).
Aliquots (270 μl) of the materials at 1.11 times the final concentration were dispensed into the wells of the MTP along one column (A1-H1). This MTP was labelled as the “Screening plate”.
In another MTP, labelled as the “Dilution plate”, 270 μl of D/E neutralising solution from DIFCO Composition was added to column 1. The composition of the neutralising solution was as follows: pancreatic digest of casein, 5.0 g/L; Yeast Extract, 2.5 g/L; Dextrose, 10 g/L, sodium thioglycollate, 1.0 g/L, sodium thiosulphate, 6.0 g/L; sodium bisulphite. 2.5 g/L; Polysorbate 80, 5.0 g/L; lecithin 7.0 g/L; bromocresol purple, 0.02 g/L with a pH in the range 7.6±0.2.
270 μl of tryptone diluent solution was added to all the remaining wells of the Dilution MTP (columns 2-6).
Bacterial stock (30 μl) was then added to the prepared 270 μl of the solution of actives in the Screening Plate and mixed, using a multichannel pipette with 8 tips to aspirate and dispense the same volume of bacterial stock in parallel to 8 wells in rows A-H. After a contact time of 15 seconds, the mixtures were quenched by transferring 30 μl volumes of the mixtures into the 270 μl DIE neutralising solution in the prepared dilution plate, using aspiration to mix. After exactly 5 minutes in the DIE neutralising solution, 30 μl volumes were transferred from column 1 to column 2 of the Dilution MTP and mixed, before transferring further 30 μl volumes from column 2 into column 3. This process was repeated serially diluting the bacteria across the plate to column 6.
30 μl volumes from each well in the Dilution MTP were transferred onto pre-labelled segment of Tryptone Soya Agar (TSA) plates starting from the lowest bacterial concentration (highest dilution, column 6) to the highest bacterial concentration (column 1). The TSA plates were allowed to stand for ca. 2 hours so that the 30 μl inocula spots could dry and the plates were then inverted and incubated overnight at 37° C. before enumerating the bacterial colonies at the labelled dilutions to determine the effects of the actives on bacterial growth.
Mean bacterial survival numbers NMBS (expressed in Log CFU/ml) are obtained by first determining the segment of the TSA plate where the number of bacterial colonies is countable. From the colony number in this segment, NMBS is calculated by the formula: […]

The test system of test [2] is Escherichia coli (E. coli—ATCC #10536). As to the kind of experiment: Automated assessment of efficacy in surfactant base (Example 4). As to conditions: for 15 second bactericidal efficacy in combination with thymol: at concentrations lower than their MBC in the same surfactant formulation; for MBC (minimum biocidal concentration): in 2.85% sodium cocoyl glycinate + 1.85% sodium lauroamphoacetate solution at pH 10. How it is done: In these examples, the efficacy of combinations of thymol and antimicrobial alcohols of the invention were tested in a surfactant cleansing formulation comprising 2.85% sodium cocoyl glycinate and 1.85% sodium lauroamphoacetate. This corresponds to a 50% in use dilution with water of a typical neat formulation containing 5.7% cocoyl glycinate and 3.7% % sodium lauroamphoacetate during hand washing. Solutions were prepared such that the concentrations of the surfactant components and test actives were 1.1 times the final desired concentration in order to allow for dilution with the bacterial inoculum in the test. The solutions were manually adjusted to pH 10.0 by dropwise addition of sodium hydroxide solution, as measured with a pH meter at ambient temperature. Solutions of the thymol and/or antimicrobial alcohols of the invention were prepared at a maximum of 24 hours before testing. The same thymol and antimicrobial alcohols were used as in Examples 1 and 3.
The efficacy of the combinations of the present invention was determined against the same bacterium as in Example 1, Escherichia coli (E. coli—ATCC #10536), at a concentration of approximately 1×10^8 bacteria per mL.
Tests were conducted using standard microtiter plate assays using an automated liquid handling system. 270 μl of the surfactant test solution was pipetted into each well of the microtitre plate (Nunc F Gamma Irradiated 96F untreated microtitre plates of clear polystyrene) and 30 μl of the bacterial suspension was then added. After exactly 15 seconds of bacterial exposure, a 30 μl volume of bacterial cells was withdrawn and transferred to 270 μl of D/E quench solution. After 5 minutes in the DIE quench, the optical density (OD) was measured for each plate in turn at two specific wavelengths (450 nm and 590 nm). These provide a dual check of antimicrobial activity, as the OD450 reading is specific for the yellow colour of DIE quench when bacterial growth is observed, whereas OD590 is specific for the initial purple colour of the DIE quench which is retained if no bacterial growth is observed. After the time zero OD measurements, plates were then incubated at 37° C. overnight (16 hours) before repeating the OD measurements. Delta OD values were calculated by subtracting […] at time=16 hours. Bacterial growth is observed as an increase in OD450 and a decrease in OD590. To identify antibacterially efficacious systems (those preventing appreciable bacterial growth after incubation), the following threshold changes in OD readings have been adopted: if (1). OD450 increases by less than 0.2 absorbance unit (AU) on incubation and (2). OD590 decreases by less than 0.35 AU on incubation. Conversely, where OD450 increases by more than 0.1 AU and OD590 decreases by more than 0.1 AU after incubation, corresponding to a colour shift from purple to yellow, the test system allows bacterial growth and is not deemed efficacious. Four replicate measurements in the same plate have been made for each test system. The number of replicate wells showing either bacterial growth or no growth is also readily assessed by eye by following the colour change. Thymol and terpineol were tested both alone and in combination for comparison purposes.
In each case, binary mixtures were assessed in the weight to weight ratio of thymol to antimicrobial alcohol of 1:2.5.

The test system is the same in test [3]. As to the kind of experiment: High resolution MBC synergy assay in phosphate buffer containing 35% dipropylene glycol (Example 2). To be noted: complete kill in 15 seconds; other component 0. How it is done:
In this Example, a wide range of combinations of chemicals was tested by conducting high resolution MBC assays of isocyclogeraniol in the presence of various concentrations of thymol. The materials were sourced in the same way as for Example 1. Synergy tests were conducted using standard microtiter plate assays with phosphate buffer containing 35% dipropylene glycol (DPG). […] The MBC plate was inoculated one column at a time with the test microorganism. An aliquot of the inoculated well was transferred at 15 seconds to a plate containing a neutralizing agent (D/E Neutralizing Broth), mixed and held for 5 minutes before being transferred to a growth plate containing trypticase soy broth (TSB). The TSB plate was incubated at 37° C. and read for the presence I absence of growth at 24 hours. […] This microorganism is representative of natural contaminants in many consumer and industrial applications.

[4] abbreviates: Table 10, from the data in Table 9, 15 seconds.

Here are results for 4 compounds from patent publication US20140322145A1, “ANTIMICROBIAL COMPOSITION” (Rohm and Haas Company, priority 2011, published 2014).

Regarding `CC1CCC(CO)C(C)C1` (centres unmarked) [dihydrofloralol, (2,4-dimethylcyclohexyl)methanol], the “MBC (minimum biocidal concentration)” value in test [1] (setting [4]) is on record as 0.5 % w/v. Further, the “MBC of antimicrobial alcohol” value in test [1] (Table 11, 15 seconds) is 0.5 % (w/v). Also, in test [2], the “15 second bactericidal efficacy in combination with thymol” value (“15 second bactericidal efficacy” for short) is “complete kill in all 4 replicates” and the “MBC (minimum biocidal concentration)” value is recorded as 0.5 % w/v.

For `CC1=CCC(CO)C(C)C1` (centres unmarked) [floralol, (4,6-dimethylcyclohex-3-en-1-yl)methanol], the “MBC (minimum biocidal concentration)” value in test [1] (setting [4]) came to 0.3 % w/v. Further, in test [1] (Table 11, 15 seconds), the “MBC of antimicrobial alcohol” value is 0.3 % (w/v). In test [2], the “15 second bactericidal efficacy” value is on record as “complete kill in all 4 replicates” and the “MBC (minimum biocidal concentration)” value was found to be 0.4 % w/v.

For the compound `CC1=CC(C)C(CO)C(C)C1` (centres unmarked) [isocyclogeraniol, (2,4,6-trimethylcyclohex-3-en-1-yl)methanol], the “MBC (minimum biocidal concentration)” value is 0.3 % w/v in test [1] (Table 4, lowest concentration giving zero bacterial survival after 15 seconds, upper boundaries); “higher than the highest tested concentrations” in test [2]; over 0.5 % w/v in test [2] (listed as Isocyclogeraniol). Also, the “MBC of antimicrobial alcohol” value in test [1] (Table 5, 15 seconds) is 0.3 % (w/v). In addition, the “MBC of component alone (MBCA, MBCB)” value in test [3] was 0.6 weight %. Further, in test [2], the “15 second bactericidal efficacy” value is reported as “complete kill in all 4 replicates”.

For `Cc1ccc(C(C)C)c(O)c1` [thymol, 2-isopropyl-5-methylphenol], the MBC of thymol is listed as 0.05 % (w/v) in test [1] (Table 5, thymol alone, 15 seconds) and 0.05 % (w/v) in test [1] (Table 11, MBC of thymol of Example 1). The “MBC of component alone (MBCA, MBCB)” value in test [3] is recorded as 0.5 weight %.
